Results on one substance are retold here after US9585871B2, “Method for treating and curing leishmaniosis using fexinidazole” (Merial Limited, priority 2013, dated 2017).

In the assay the test system is L. infantum. Put plainly: Clinical study in dogs infected with L. infantum: Overall Biological Score. Format: in vivo. Also noted: key: additive score of severity of hematology/chemistry changes. The settings on record: samples collected on D16 (printed in Day 28 column), Group 1 Block 8 dog removed for toxicity; Glucantime 100 mg/kg dNMA SC once daily.

Turning to meglumine antimoniate [Glucantime], the “Overall Biological Score” value is reported as 5^2.
